The text below walks through data of patent US11180504B2 (ORCHID PHARMA LTD., priority 2016, dated 2021).

Assay [1] concerns carbapenemase producing K. pneumoniae. Nature of the assay: MIC by broth micro-dilution (CLSI), carbapenemase producing K. pneumoniae. It counts as cell-based, Klebsiella pneumoniae. To be noted: Klebsiella pneumoniae, ATCCBAA1705, KPC-2 K. pneumoniae ATCC BAA-1705; read-out: MIC.
In assay [2] the test system is extended spectrum β lactamase (ESBL) SHV18 producing Klebsiella pneumoniae. The experiment in a line: MIC by broth micro-dilution (CLSI), ESBL SHV18 producing K. pneumoniae. It counts as cell-based. To be noted: Klebsiella pneumoniae, ATCC700603, 22 h, ESBL +ve (SHV-18) K. pneumoniae ATCC700603; read-out: MIC. A general note: Broth dilution looks for growth in wells or tubes with falling amounts of substance.

Assay [3] relates to carbapenem sensitive Pseudomonas aeruginosa. The experiment in a line: MIC by broth micro-dilution (CLSI), carbapenem sensitive P. aeruginosa. It counts as cell-based. Conditions: Pseudomonas aeruginosa, ATCC27853, Meropenem susceptible P. aeruginosa ATCC27853; read-out: MIC.
The subject of assay [4] is carbapenem sensitive Escherichia coli. Nature of the assay: MIC by broth micro-dilution (CLSI), carbapenem sensitive E. coli. Type of assay: cell-based. To be noted: Escherichia coli, ATCC25922, ESBL −ve E. coli ATCC25922; read-out: MIC.
Assay [5] has as its system methicillin-sensitive Staphylococcus aureus. Nature of the assay: MIC by broth micro-dilution (CLSI), methicillin-sensitive S. aureus. To be noted: Staphylococcus aureus, ATCC 29213 / MSSA, MSSA S. aureus ATCC29213; read-out: MIC. It counts as cell-based.

One may read the MIC as the lowest concentration found to suppress growth.

In brackets after ≈: the same amount, converted by molar mass.

As for `COCc1cn([C@H](C)[C@H]2C(=O)N3C(C(=O)O)=C(S[C@@H]4CN[C@H](CNS(N)(=O)=O)C4)[C@H](C)[C@H]23)nn1` [Example 234], the MIC is 4 µg/mL (≈ 7.76 µM) in assay [1]; 4 µg/mL (≈ 7.76 µM) in assay [2]; greater than 128 µg/mL in assay [3]; 0.5 µg/mL (≈ 0.97 µM) in assay [4]; 0.5 µg/mL (≈ 0.97 µM) in assay [5].
As to `C[C@@H](NC(=O)[C@H]1CCCN1)[C@H]1C(=O)N2C(C(=O)O)=C(S[C@@H]3CN[C@H](CNS(N)(=O)=O)C3)[C@H](C)[C@H]12` [Example 226], the MIC in assay [1] stood at 8 µg/mL (≈ 15.5 µM); in assay [2] it was 32 µg/mL (≈ 61.9 µM); in assay [3] it was 64 µg/mL (≈ 124 µM); in assay [4] it was 1 µg/mL (≈ 1.94 µM); in assay [5], 32 µg/mL (≈ 61.9 µM).
Take `C[C@@H](NC(=O)C(F)F)[C@H]1C(=O)N2C(C(=O)O)=C(S[C@@H]3CN[C@H](C(=O)N4CCC(C(=O)O)CC4)C3)[C@H](C)[C@H]12` [Example 37]: the minimum inhibitory concentration (MIC) in assay [1] was 16 µg/mL (≈ 29.4 µM); in assay [2], 1 µg/mL (≈ 1.84 µM); in assay [3] it was greater than 128 µg/mL; in assay [4] it was 1 µg/mL (≈ 1.84 µM); in assay [5], 16 µg/mL (≈ 29.4 µM).
On to `C[C@@H](NC(=O)C(F)F)[C@H]1C(=O)N2C(C(=O)O)=C(S[C@@H]3CN[C@H](C(=O)N4CC[C@@H](N)C4)C3)[C@H](C)[C@H]12` [Example 124], for which the MIC in assay [1] turned out to be 4 µg/mL (≈ 7.98 µM); in assay [2], 4 µg/mL (≈ 7.98 µM); in assay [3], 4 µg/mL (≈ 7.98 µM); in assay [4] it was 1 µg/mL (≈ 1.99 µM); in assay [5], 2 µg/mL (≈ 3.99 µM).
In the case of `CNCC(=O)N[C@H](C)[C@H]1C(=O)N2C(C(=O)O)=C(S[C@@H]3CN[C@H](Cn4cc(CN)nn4)C3)[C@H](C)[C@H]12` [Example 181], the MIC was 64 µg/mL (≈ 130 µM) in assay [1]; greater than 128 µg/mL in assay [2]; 128 µg/mL (≈ 260 µM) in assay [3]; 8 µg/mL (≈ 16.2 µM) in assay [4]; greater than 128 µg/mL in assay [5].
For the molecule `CNC(=O)[C@@H]1C[C@H](SC2=C(C(=O)O)N3C(=O)[C@H]([C@@H](C)NC(=O)C(F)F)[C@H]3[C@H]2C)CN1` [Example 101], the MIC in assay [1] turned out to be 4 µg/mL (≈ 8.96 µM); in assay [2], 1 µg/mL (≈ 2.24 µM); in assay [3], 64 µg/mL (≈ 143 µM); in assay [4], 0.5 µg/mL (≈ 1.12 µM); in assay [5] it was 2 µg/mL (≈ 4.48 µM).
On the same counts, the results for `C[C@@H](NC(=O)C(F)F)[C@H]1C(=O)N2C(C(=O)O)=C(Sc3nc(-c4ccncc4)cs3)[C@H](C)[C@H]12` [Example 88] are greater than 128 µg/mL, greater than 128 µg/mL, greater than 128 µg/mL, 128 µg/mL (≈ 266 µM) and 0.25 µg/mL (≈ 0.52 µM).
As to `CNCC(=O)N[C@H](C)[C@H]1C(=O)N2C(C(=O)O)=C(S[C@@H]3CN[C@H](C(=O)N4C[C@@H](N)C[C@H]4CNS(N)(=O)=O)C3)[C@H](C)[C@H]12` [Example 216], the MIC in assay [1] is 4 µg/mL (≈ 6.64 µM); in assay [2] it was 16 µg/mL (≈ 26.5 µM); in assay [3], 4 µg/mL (≈ 6.64 µM); in assay [4] it was 1 µg/mL (≈ 1.66 µM); in assay [5], 32 µg/mL (≈ 53.1 µM).
For the molecule `CNCC(=O)N[C@H](C)[C@H]1C(=O)N2C(C(=O)O)=C(S[C@@H]3CN[C@H](C(=O)N4C[C@@H](O)[C@@H](N)C4)C3)[C@H](C)[C@H]12` [Example 218], the MIC amounted to 2 µg/mL (≈ 3.92 µM) in assay [1]; 2 µg/mL (≈ 3.92 µM) in assay [2]; 2 µg/mL (≈ 3.92 µM) in assay [3]; 1 µg/mL (≈ 1.96 µM) in assay [4]; 16 µg/mL (≈ 31.3 µM) in assay [5].
As for `C[C@@H](NC(=O)C(F)F)[C@H]1C(=O)N2C(C(=O)O)=C(S[C@@H]3CN[C@H](C(=O)N4CCN(C(=N)N)CC4)C3)[C@H](C)[C@H]12` [Example 157], the minimal inhibitory concentration (MIC) came out at 4 µg/mL (≈ 7.36 µM) in assay [1]; 8 µg/mL (≈ 14.7 µM) in assay [2]; 4 µg/mL (≈ 7.36 µM) in assay [3]; 1 µg/mL (≈ 1.84 µM) in assay [4]; 2 µg/mL (≈ 3.68 µM) in assay [5].
Turning to `CCS(=O)(=O)CC(=O)N[C@H](C)[C@H]1C(=O)N2C(C(=O)O)=C(S[C@@H]3CN[C@H](C(=O)N(C)C)C3)[C@H](C)[C@H]12` [Example 63], the MIC in assay [1] is 8 to 16 µg/mL (≈ 15.5 to 31 µM); in assay [2] it was 16 to 32 µg/mL (≈ 31 to 61.9 µM); in assay [3], greater than 128 µg/mL; in assay [4], 1 to 2 µg/mL (≈ 1.94 to 3.87 µM); in assay [5], 8 to 16 µg/mL (≈ 15.5 to 31 µM).
